According to patent US20090017103A1, “Antisense oligonucleotides for prevention of metastasis formation of cancer cells” (priority 2003, published 2009):
Where “and” joins values, the source holds several entries; their conditions need not be identical. Equal values may be shown once. Entries after “also recorded” stand apart in the source; their conditions may differ. Marks after values point to notes of the source that are not given here.

Key:
MDA-MB-231^GFP cells [1] = experiment: In vivo treatment with mini-osmotic pumps (osteolytic bone metastasis model);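 on Mean size of lesion: mean lesion size in relative units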;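 on Size of lesion (per animal): lesion size in relative units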; set-up: species or system nude rats; details: for X-ray scan of hind legs: lytic lesions (in words): FIG. 5-7; for T/C / Mean size of lesion / Size of lesion (per animal): mini-osmotic pumps; for T/C: vs NSO control; for T/C × 100: mean lesion size vs NSO control rats; for Incidence of metastasis: mini-osmotic pumps s.c., 7 mg/kg daily over four weeks
[2] = test system: MDA-MB-231 breast cancer cells; experiment: Clonogenicity assay (colony formation); format: cell-based, human; details: for inhibition of colony formation (colony growth inhibition): single exposure; for reduction of colony counts: twofold exposure
How it was run: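 MDA-MB-231 cells given lipofectamine-complexed ASO (5, 10 or 20 μM, 12 h) and/or ErPC3 (10, 14, 20 μM, 24 h), singly or in sequential cycles, then grown 48-72 h. 5000 cells plated in methylcellulose/30% FBS; MTT-stained colonies (≥30 cells) counted after 5-7 days.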

MDA-MB-231^GFP cells [3] = experiment: In vivo model with pretreated MDA-MB-231^GFP cells (osteolytic bone metastasis); set-up: species or system nude rats; lesion size of the rat(s) that developed lytic metastasis, % of control / lesion sizes with respect to all animals of the group compared to untreated control / lesion size of individual animal compared to the untreated control / T/C % (mean lesion size compared to untreated control): concentration or dose not given beside the values; details: for T/C × 100: mean lesion size vs untreated control rats; for Incidence of metastasis: cells pretreated in vitro (10 μM);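 on Mean size of lesion: mean lesion size in relative units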

“5′-CTAACTTAAAAAACAAAAGA-3′ (antisense CTAACTTAAAAAACAAAAGA; all phosphorothioate, sugars by position and methylation of C not given here) [ASO-OPN-4]” was tested, and the “X-ray scan of hind legs: lytic lesions (in words)” value (MDA-MB-231^GFP cells [1]; eight weeks after tumor cell implantation) was “clear increase of lytic lesions in the tibia, however new formation of bone tissue at the edges of the lesions”, the “X-ray scan of hind legs: lytic lesions (in words)” value (MDA-MB-231^GFP cells [1]; four weeks after tumor cell implantation, therapy from implantation) was “small lytic lesions in the tibia” and the “X-ray scan of hind legs: lytic lesions (in words)” value (MDA-MB-231^GFP cells [1]; six weeks after tumor cell implantation) was “visible lytic lesions in the tibia”. The “X-ray scan of hind legs: lytic lesions (in words)” value (MDA-MB-231^GFP cells [1]; ten weeks after tumor cell implantation) was “a decrease of the lesions is clearly visible”, the T/C (MDA-MB-231^GFP cells [1]; week 4) was 58% and the T/C (MDA-MB-231^GFP cells [1]; week 12) was 26%. The “T/C × 100” value (MDA-MB-231^GFP cells [1]; week 4) was 58, the “Mean size of lesion” value (MDA-MB-231^GFP cells [1]; week 4) was 19 R.U and the “Size of lesion (per animal)” value (MDA-MB-231^GFP cells [1]; week 4) was 20 R.U. and 41 R.U. and 0 R.U. (2×) and 34 R.U. The Incidence of metastasis (MDA-MB-231^GFP cells [1]; week 4, 7 mg/kg) was “three out of five and 3/5”, the “T/C × 100” value (MDA-MB-231^GFP cells [1]; week 6) was 41 and the “Mean size of lesion” value (MDA-MB-231^GFP cells [1]; week 6) was 73 R.U. For the same substance, the “Size of lesion (per animal)” value (MDA-MB-231^GFP cells [1]; week 6) was 35 R.U. and 285 R.U. and 0 R.U. (2×) and 46 R.U, the Incidence of metastasis (MDA-MB-231^GFP cells [1]; week 6) was 3/5 and the “T/C × 100” value (MDA-MB-231^GFP cells [1]; week 8) was 45. The “Mean size of lesion” value (MDA-MB-231^GFP cells [1]; week 8) was 124 R.U, the “Size of lesion (per animal)” value (MDA-MB-231^GFP cells [1]; week 8) was 117 R.U. and 415 R.U. and 27 R.U. and 60 R.U. and 0 R.U and the Incidence of metastasis (MDA-MB-231^GFP cells [1]; week 8) was 4/5. The “T/C × 100” value (MDA-MB-231^GFP cells [1]; week 9) was 48, the “Mean size of lesion” value (MDA-MB-231^GFP cells [1]; week 9) was 134 R.U and the “Size of lesion (per animal)” value (MDA-MB-231^GFP cells [1]; week 9) was 435 R.U. and 123 R.U. and 53 R.U. and 57 R.U. and 0 R.U. The Incidence of metastasis (MDA-MB-231^GFP cells [1]; week 9) was 4/5, the “T/C × 100” value (MDA-MB-231^GFP cells [1]; week 10) was 29 and the “Mean size of lesion” value (MDA-MB-231^GFP cells [1]; week 10) was 124 R.U. For the same substance, the “Size of lesion (per animal)” value (MDA-MB-231^GFP cells [1]; week 10) was 74 R.U. and 67 R.U. and 45 R.U. and 0 R.U, the Incidence of metastasis (MDA-MB-231^GFP cells [1]; week 10) was 4/5 and the “T/C × 100” value (MDA-MB-231^GFP cells [1]; week 12) was 26. For the same substance, the “Mean size of lesion” value (MDA-MB-231^GFP cells [1]; week 12) was 112 R.U, the “Size of lesion (per animal)” value (MDA-MB-231^GFP cells [1]; week 12) was 31 R.U. (2×) and 64 R.U. and 0 R.U and the Incidence of metastasis (MDA-MB-231^GFP cells [1]; week 12) was 3. The “% Control” value ([2]; Exp. III a, repeated exposure 2 × 5 μM) was 84%, the Mean colony no. ([2]; Exp. III a, repeated exposure 2 × 5 μM, control 456) was 381^6,8) and the “% Control” value ([2]; Exp. III a, repeated exposure 2 × 10 μM) was 51%. For the same substance, the Mean colony no. ([2]; Exp. III a, repeated exposure 2 × 10 μM, control 456) was 233^7,8), the “% Control” value ([2]; Exp. III a, repeated exposure 2 × 20 μM) was 40% and the Mean colony no. ([2]; Exp. III a, repeated exposure 2 × 20 μM, control 456) was 181^7). The “% Control” value ([2]; Experiment I, single treatment, 5 μM) was 85%, the Mean colony no. ([2]; Experiment I, single treatment, 5 μM, control 778) was 658^6) and the “% Control” value ([2]; Experiment I, single treatment, 10 μM) was 61%. The Mean colony no. ([2]; Experiment I, single treatment, 10 μM, control 778) was 475^7), the “% Control” value ([2]; Experiment I, single treatment, 20 μM) was 53% and the Mean colony no. ([2]; Experiment I, single treatment, 20 μM, control 778) was 416. The “% Control” value ([2]; Experiment III b, repeated exposure 2 × 5 μM) was 63%, the Mean colony no. ([2]; Experiment III b, repeated exposure 2 × 5 μM, control 517) was 330^6,8) and the “% Control” value ([2]; Experiment III b, repeated exposure 2 × 10 μM) was 57%. For the same substance, the Mean colony no. ([2]; Experiment III b, repeated exposure 2 × 10 μM, control 517) was 296^7,8), the “% Control” value ([2]; Experiment III b, repeated exposure 2 × 20 μM) was 50% and the Mean colony no. ([2]; Experiment III b, repeated exposure 2 × 20 μM, control 517) was 258^8). For the same substance, the “inhibition of colony formation (colony growth inhibition)” value (from here on “inhibition of colony formation”) ([2]; 5 μM) was 15%, the “inhibition of colony formation” value ([2]; 10 μM) was 39% and the “inhibition of colony formation” value ([2]; 20 μM, listed as ASO-OPN-04, 20 µM) was 47% and 46%. The “reduction of colony counts” value ([2]; 5 μM) was 16%, the “reduction of colony counts” value ([2]; 20 μM) was 60% and the “repeated exposure compared with single exposure, colony formation (in words)” value ([2]; twofold vs single ASO exposure) was “more effective than single exposure”. The “T/C × 100” value (MDA-MB-231^GFP cells [3]; 4 weeks) was 3.9, the “T/C × 100” value (MDA-MB-231^GFP cells [3]; 6 weeks) was 3.8 and the “T/C × 100” value (MDA-MB-231^GFP cells [3]; 8 weeks) was 4.3. For the same substance, the “X-ray scan of hind legs: osteolytic lesions (in words)” value (MDA-MB-231^GFP cells [3]; FIG. 3 and FIG. 4, one rat each, cells pre-exposed, listed as ASO-OPN-04) was “no osteolysis; also recorded: no visible lytic lesions”, the “rats in which formation of osteolytic metastasis was inhibited (no visible metastasis)” value (MDA-MB-231^GFP cells [3]; cells pre-exposed to ASO, observation period of eight weeks, listed as ASO-OPN-04) was “Three of four and 3 of 4” and the Incidence of metastasis (MDA-MB-231^GFP cells [3]; observation period 4 weeks) was 1/4. The “Mean size of lesion” value (MDA-MB-231^GFP cells [3]; observation period 4 weeks, pretreated cells) was 8.5 R.U, the Incidence of metastasis (MDA-MB-231^GFP cells [3]; observation period 6 weeks) was 1/4 and the “Mean size of lesion” value (MDA-MB-231^GFP cells [3]; observation period 6 weeks, pretreated cells) was 11.5 R.U. For the same substance, the Incidence of metastasis (MDA-MB-231^GFP cells [3]; observation period 8 weeks) was 1/4^4), the “Mean size of lesion” value (MDA-MB-231^GFP cells [3]; observation period 8 weeks, pretreated cells) was 15 R.U and the “T/C % (mean lesion size compared to untreated control)” value (MDA-MB-231^GFP cells [3]; pretreated cells, after eight weeks) was 4.3%. The “lesion sizes with respect to all animals of the group compared to untreated control” value (MDA-MB-231^GFP cells [3]; pretreated cells, over observation period week 4 to week 8) was “about 4%”, the “lesion sizes of the one metastasis-bearing animal compared to the control” value (MDA-MB-231^GFP cells [3]; pretreated cells, overall observation period (8 weeks)) was “about 16%” and the “lesion size of the rat(s) that developed lytic metastasis” value (MDA-MB-231^GFP cells [3]; pretreated cells, week 4) was 34 R.U. For the same substance, the “lesion size of the rat(s) that developed lytic metastasis, % of control” value (MDA-MB-231^GFP cells [3]; pretreated cells, week 4, vs mean of the two control groups (197 R.U.)) was 17%, the “lesion size of the rat(s) that developed lytic metastasis” value (MDA-MB-231^GFP cells [3]; pretreated cells, week 8) was 60 R.U and the “lesion size of the rat(s) that developed lytic metastasis, % of control” value (MDA-MB-231^GFP cells [3]; pretreated cells, week 8, vs mean of the two control groups (416 R.U.)) was 17%.
